Laboratory results: patent US20060009441A1, “Human trace amine associated receptors” (priority 2004, published 2006)
Read-outs that look alike come from different tables or passages of the source.

Target: Human TAAR 1 (Homo sapiens, UniProt Q96RJ0)
Assay: cAMP Biotrak EIA functional assay in HEK293 cells stably expressing hTAAR1
Format: cell-based
Conditions: for Emax: HEK293, read-out: Max (maximal response as percentage of the maximal cAMP levels induced by p-TYR)
[1] = cAMP production in HEK293 cells stably expressing human TAAR 1 (chimera with rat TAAR 1 N-/C-terminus and 3rd intracellular loop, HA leader), means of at least three independent experiments

Human TAAR 1, sequence (Q96RJ0 with tags, fused parts or gaps): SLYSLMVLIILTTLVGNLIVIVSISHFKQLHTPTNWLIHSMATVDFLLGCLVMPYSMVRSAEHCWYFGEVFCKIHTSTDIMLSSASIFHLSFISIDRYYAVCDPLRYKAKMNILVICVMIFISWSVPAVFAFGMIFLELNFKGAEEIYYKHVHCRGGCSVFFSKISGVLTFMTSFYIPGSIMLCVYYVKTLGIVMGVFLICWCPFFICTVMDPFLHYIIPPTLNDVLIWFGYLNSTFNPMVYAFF
Human TAAR 1, sequence (Q923Y9 with tags, fused parts or gaps partner): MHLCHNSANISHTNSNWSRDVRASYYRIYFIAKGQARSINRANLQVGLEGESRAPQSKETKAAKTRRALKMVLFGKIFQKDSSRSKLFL

Row | Compound | EC50 [1] [nM] | Max (maximal response as percentage of the maximal cAMP levels induced by p-TYR) [%] | Emax [%] | EC50 [nM]
1 | NC[C@H](O)c1ccc(O)c(O)c1 [Norepinephrine, norepinephrine] | > 50000 |  |  | 
2 | CNCCc1ccc(O)cc1 [N-methyl-p-tyramine] | 2050 | 100 |  | 
3 | NCCc1c[nH]c2ccccc12 [TRY, tryptamine] | 46900 |  | 100 | 
4 | NCCc1ccc(O)c(O)c1 [Dopamine, dopamine] |  |  | 50 | 
5 | NCC(O)c1ccc(O)cc1 (stereo not shown) [OCT, octopamine] | 10300 |  | 100 | 
6 | NCCc1c[nH]cn1 [Histamine, histamine] | > 50000 |  |  | 
7 | NCCc1ccc(O)cc1 [p-TYR, p-tyramine] |  | 100 |  | 1070
8 | NCCc1ccccc1 [β-PEA, β-phenylethylamine] | 300 |  | 100 | 
9 | NCCc1c[nH]c2ccc(O)cc12 [Serotonin, 5-HT, Serotonin] | > 50000 |  |  | 
10 | CNCCc1ccccc1 [N-methyl-β-PEA] | 160 | 100 |  | 
